Key:
Assay type in all cases: biochemical
Aminopeptidase [1] = experiment: Inhibition of aminopeptidase from bovine longitudinal muscle (substrate enkephalin); conditions: for IC50: aminopeptidase; for inhibition rate, Aminopeptidase: principal ingredient 1 μg/1 ml
Description: (§1) (1) As described above, the inhibitor of the present invention has a strong effect of inhibiting the action of the opioid peptide-degrading enzyme. […] On the other hand, however, some opioid peptides released in vivo when such narcotic substances are given and opioid peptide-degrading enzymes have been known. Accordingly, the effects of the products of the present invention were judged from inhibition rates realized when the products were allowed to act on the opioid peptide-degrading enzyme in the presence of the opioid peptide in vitro.
(§2) In the tests, the product of the invention was added to an opioid peptide such as enkephalin or its model compound. After an incubation effected for a given time, the inhibition rates of the product against the opioid peptide-degrading enzyme were examined. Various opioid peptides were used.
(§3) The opioid peptide-degrading enzymes derived from bovine longitudinal muscle used in the above examples were purified partially by a process of Goreustein and Snyder S. H., ["Life Sci." 25, 2065 (1979)]. The inhibition effects of the compounds of the present invention on the opioid peptide-degrading enzymes were determined by a process of T. Hazato, M. Shimamura, T. Katayama and T. Yamamoto [B.B.R.C. 105, 470-475 (1982)] (for dipeptidylaminopeptidase), a process of M. Shimamura, T. Hazato and T. Katayama [B.B.A., 756, 223-229 (1983)] (for aminopeptidase) and analogous processes.

Dipeptidylaminopeptidase [2] = experiment: Inhibition of dipeptidylaminopeptidase from monkey brain (substrate enkephalin)
Aminopeptidase [3] = experiment: Inhibition of aminopeptidase from monkey brain (substrate enkephalin)
aminopeptidase [4] = experiment: Inhibition of aminopeptidase of human cerebrospinal fluid (substrate enkephalin); conditions: for IC50: aminopeptidase eluted from human cerebrospinal fluid, substrate enkephalin; for inhibition effect on aminopeptidase: dialyzed human cerebrospinal fluid, 2 mg/ml
Description: (§4) A human cerebrospinal fluid was dialyzed by using 25 mM of tris-HCl buffer having a pH of 7.0 for 5 hrs. Enkephalin-degrading enzymes contained therein were analyzed according to a radioautography or the like. In the cerebrospinal fluid, the aminopeptidase activity was the strongest. Further, dipeptidylaminopeptidase and dipeptidylcarboxypeptidase activites which were non-selective for bestatin were also recognized.
(§5) The compound (3) and (6) of the present invention were allowed to act on the respective enzymes.
On the other hand, the aminopeptidase alone was eluted according to the cellulose column chromatography using a NaCl solution as a eluant. IC50 values of the above two compounds on the aminopeptidase were determined according to Porapak Q column process and high-performance liquid chromatography using enkephalin as the substrate. The results were compared with those of Arphamenin A and B the inhibitive actions of which on the enkephalin-degrading enzyme have been known.

[5] = biological target: Angiotensin converting enzyme; experiment: Inhibition of angiotensin converting enzyme from monkey brain; conditions: substrate Hip--His--L-Lue
[6] = biological target: T1, angiotensin converting enzyme (Rattus norvegicus, UniProt P47820); experiment: Inhibition of angiotensin converting enzyme from rat lung; conditions: substrate Hip--His--L-Lue
T1 construct: lung; from tissue; host or cells: rat lung
T1 sequence (P47820 36-1313): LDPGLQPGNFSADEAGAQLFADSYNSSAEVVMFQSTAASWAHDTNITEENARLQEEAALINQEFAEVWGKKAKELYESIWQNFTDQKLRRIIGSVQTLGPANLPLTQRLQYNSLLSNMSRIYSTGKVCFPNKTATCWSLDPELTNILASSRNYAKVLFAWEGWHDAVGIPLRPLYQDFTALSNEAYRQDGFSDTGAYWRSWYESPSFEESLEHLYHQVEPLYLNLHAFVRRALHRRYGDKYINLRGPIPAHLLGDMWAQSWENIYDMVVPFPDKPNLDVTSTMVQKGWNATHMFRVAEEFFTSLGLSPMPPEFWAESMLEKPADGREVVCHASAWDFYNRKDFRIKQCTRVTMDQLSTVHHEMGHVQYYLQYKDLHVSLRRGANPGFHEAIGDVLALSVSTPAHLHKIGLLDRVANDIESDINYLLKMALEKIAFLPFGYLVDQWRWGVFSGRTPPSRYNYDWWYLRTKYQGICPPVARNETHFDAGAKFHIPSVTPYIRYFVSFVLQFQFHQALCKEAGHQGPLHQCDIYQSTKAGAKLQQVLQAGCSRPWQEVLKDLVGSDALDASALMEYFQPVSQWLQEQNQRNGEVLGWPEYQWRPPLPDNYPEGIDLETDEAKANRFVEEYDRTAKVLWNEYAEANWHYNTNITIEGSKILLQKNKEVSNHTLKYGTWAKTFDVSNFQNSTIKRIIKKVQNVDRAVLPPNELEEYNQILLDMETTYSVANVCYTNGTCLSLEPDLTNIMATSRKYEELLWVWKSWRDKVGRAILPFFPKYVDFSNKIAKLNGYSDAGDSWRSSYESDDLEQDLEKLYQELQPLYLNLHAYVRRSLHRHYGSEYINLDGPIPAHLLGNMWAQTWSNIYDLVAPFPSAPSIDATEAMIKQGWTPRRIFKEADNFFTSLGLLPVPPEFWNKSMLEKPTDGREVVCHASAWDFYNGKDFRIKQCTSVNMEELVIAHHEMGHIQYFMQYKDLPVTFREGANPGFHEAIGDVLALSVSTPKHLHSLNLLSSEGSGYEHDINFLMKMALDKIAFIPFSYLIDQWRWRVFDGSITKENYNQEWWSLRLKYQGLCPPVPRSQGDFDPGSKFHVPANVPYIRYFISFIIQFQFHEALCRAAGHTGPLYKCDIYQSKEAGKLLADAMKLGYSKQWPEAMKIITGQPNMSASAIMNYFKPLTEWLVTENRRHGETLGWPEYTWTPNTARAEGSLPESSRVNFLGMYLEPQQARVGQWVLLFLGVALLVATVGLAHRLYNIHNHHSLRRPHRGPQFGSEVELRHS

Carboxypeptidase [7] = experiment: Inhibition of carboxypeptidase from bovine longitudinal muscle (substrate Hip-L-PheAla); conditions: for inhibition rate, Carboxypeptidase: principal ingredient 1 μg/1 ml
Description: as §1, §2, §3

[8] = biological target: T2, Dipeptidylcarboxypeptidase (Bos taurus, UniProt P12820); experiment: Inhibition of dipeptidylcarboxypeptidase from bovine longitudinal muscle (substrate Hip-His-Leu)
T2 construct: derived from bovine longitudinal muscle; from tissue; host or cells: bovine longitudinal muscle, partially purified (Gorenstein and Snyder 1979)
T2 sequence (P12820 29-1306): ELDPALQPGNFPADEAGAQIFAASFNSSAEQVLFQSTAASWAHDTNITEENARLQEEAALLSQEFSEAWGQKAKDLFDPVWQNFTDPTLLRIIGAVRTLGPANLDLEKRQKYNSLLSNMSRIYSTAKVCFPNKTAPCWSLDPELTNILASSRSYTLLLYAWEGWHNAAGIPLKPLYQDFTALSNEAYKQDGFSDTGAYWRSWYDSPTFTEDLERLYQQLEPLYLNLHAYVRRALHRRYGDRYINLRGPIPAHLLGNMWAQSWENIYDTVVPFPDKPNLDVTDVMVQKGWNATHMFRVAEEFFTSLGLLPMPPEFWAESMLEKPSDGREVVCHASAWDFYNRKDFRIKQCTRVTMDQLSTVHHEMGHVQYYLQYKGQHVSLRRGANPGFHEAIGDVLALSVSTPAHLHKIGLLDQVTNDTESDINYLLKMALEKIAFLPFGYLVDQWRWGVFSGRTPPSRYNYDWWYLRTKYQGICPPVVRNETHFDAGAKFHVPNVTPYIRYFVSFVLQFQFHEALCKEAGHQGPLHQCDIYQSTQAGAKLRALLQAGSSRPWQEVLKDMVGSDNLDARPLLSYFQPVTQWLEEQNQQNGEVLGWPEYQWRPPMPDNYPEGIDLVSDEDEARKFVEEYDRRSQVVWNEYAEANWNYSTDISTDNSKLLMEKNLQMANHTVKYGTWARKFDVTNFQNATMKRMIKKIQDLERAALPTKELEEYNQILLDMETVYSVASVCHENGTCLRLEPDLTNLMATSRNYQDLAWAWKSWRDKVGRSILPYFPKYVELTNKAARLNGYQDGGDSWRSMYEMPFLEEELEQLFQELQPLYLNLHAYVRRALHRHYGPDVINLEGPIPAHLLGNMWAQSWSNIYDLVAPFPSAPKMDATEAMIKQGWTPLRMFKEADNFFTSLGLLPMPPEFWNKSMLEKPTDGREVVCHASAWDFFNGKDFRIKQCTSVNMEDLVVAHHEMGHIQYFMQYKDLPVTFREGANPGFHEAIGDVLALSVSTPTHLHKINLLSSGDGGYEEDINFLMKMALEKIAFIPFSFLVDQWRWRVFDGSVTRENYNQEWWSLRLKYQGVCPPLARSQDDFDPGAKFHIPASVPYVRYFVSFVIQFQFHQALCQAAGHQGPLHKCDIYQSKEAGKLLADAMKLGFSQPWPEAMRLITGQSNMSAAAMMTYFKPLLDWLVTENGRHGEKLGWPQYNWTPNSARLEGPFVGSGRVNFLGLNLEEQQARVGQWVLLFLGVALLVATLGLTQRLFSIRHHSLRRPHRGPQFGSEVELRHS
Description: as §1, §2
The opioid peptide-degrading enzymes derived from bovine longitudinal muscle used in the above examples were purified partially by a process of Goreustein and Snyder S. H., ["Life Sci." 25, 2065 (1979)]. The inhibition effects of the compounds of the present invention on the opioid peptide-degrading enzymes were determined by a process of T. Hazato, M. Shimamura, T. Katayama and T. Yamamoto [B.B.R.C. 105, 470-475 (1982)] (for dipeptidylaminopeptidase), a process of M. Shimamura, T. Hazato and T. Katayama [B.B.A., 756, 223-229 (1983)] […]

[9] = biological target: dipeptidylcarboxypeptidase (Homo sapiens, UniProt P12821); experiment: Inhibition of dipeptidylcarboxypeptidase of human cerebrospinal fluid; conditions: dialyzed human cerebrospinal fluid; 2 mg/ml
Description: as §4, §5

dipeptidylaminopeptidase [10] = biological target: T3, dipeptidylaminopeptidase (Homo sapiens, UniProt Q9NY33); experiment: Inhibition of dipeptidylaminopeptidase of human cerebrospinal fluid; conditions: dialyzed human cerebrospinal fluid; 2 mg/ml
T3 construct: A human cerebrospinal fluid was dialyzed; from tissue; host or cells: human cerebrospinal fluid, dialyzed
T3 sequence (Q9NY33 2-737 limits assumed): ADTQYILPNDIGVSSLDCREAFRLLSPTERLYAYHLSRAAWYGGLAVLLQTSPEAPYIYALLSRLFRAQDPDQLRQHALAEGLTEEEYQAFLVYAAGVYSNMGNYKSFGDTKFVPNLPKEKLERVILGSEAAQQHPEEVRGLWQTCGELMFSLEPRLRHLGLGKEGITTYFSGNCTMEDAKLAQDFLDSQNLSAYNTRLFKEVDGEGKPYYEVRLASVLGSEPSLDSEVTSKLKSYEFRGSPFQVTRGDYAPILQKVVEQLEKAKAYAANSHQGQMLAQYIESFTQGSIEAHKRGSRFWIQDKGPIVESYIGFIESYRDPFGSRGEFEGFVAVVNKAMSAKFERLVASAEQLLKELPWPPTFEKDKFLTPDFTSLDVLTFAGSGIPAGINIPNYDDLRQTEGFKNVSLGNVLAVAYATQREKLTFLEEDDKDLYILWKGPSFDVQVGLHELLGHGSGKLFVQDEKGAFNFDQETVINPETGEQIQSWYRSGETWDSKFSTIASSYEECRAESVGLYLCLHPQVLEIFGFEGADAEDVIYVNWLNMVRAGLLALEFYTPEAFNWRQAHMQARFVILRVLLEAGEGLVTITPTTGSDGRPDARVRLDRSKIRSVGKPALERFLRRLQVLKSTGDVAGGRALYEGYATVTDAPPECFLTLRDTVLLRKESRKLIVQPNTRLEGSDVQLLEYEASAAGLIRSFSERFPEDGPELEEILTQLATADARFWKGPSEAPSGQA
Description: as §4, §5

carboxypeptidase [11] = experiment: Inhibition of carboxypeptidase of human cerebrospinal fluid; conditions: dialyzed human cerebrospinal fluid; 2 mg/ml
Description: as §4, §5

Sequence of dipeptidylcarboxypeptidase (P12821 30-1232): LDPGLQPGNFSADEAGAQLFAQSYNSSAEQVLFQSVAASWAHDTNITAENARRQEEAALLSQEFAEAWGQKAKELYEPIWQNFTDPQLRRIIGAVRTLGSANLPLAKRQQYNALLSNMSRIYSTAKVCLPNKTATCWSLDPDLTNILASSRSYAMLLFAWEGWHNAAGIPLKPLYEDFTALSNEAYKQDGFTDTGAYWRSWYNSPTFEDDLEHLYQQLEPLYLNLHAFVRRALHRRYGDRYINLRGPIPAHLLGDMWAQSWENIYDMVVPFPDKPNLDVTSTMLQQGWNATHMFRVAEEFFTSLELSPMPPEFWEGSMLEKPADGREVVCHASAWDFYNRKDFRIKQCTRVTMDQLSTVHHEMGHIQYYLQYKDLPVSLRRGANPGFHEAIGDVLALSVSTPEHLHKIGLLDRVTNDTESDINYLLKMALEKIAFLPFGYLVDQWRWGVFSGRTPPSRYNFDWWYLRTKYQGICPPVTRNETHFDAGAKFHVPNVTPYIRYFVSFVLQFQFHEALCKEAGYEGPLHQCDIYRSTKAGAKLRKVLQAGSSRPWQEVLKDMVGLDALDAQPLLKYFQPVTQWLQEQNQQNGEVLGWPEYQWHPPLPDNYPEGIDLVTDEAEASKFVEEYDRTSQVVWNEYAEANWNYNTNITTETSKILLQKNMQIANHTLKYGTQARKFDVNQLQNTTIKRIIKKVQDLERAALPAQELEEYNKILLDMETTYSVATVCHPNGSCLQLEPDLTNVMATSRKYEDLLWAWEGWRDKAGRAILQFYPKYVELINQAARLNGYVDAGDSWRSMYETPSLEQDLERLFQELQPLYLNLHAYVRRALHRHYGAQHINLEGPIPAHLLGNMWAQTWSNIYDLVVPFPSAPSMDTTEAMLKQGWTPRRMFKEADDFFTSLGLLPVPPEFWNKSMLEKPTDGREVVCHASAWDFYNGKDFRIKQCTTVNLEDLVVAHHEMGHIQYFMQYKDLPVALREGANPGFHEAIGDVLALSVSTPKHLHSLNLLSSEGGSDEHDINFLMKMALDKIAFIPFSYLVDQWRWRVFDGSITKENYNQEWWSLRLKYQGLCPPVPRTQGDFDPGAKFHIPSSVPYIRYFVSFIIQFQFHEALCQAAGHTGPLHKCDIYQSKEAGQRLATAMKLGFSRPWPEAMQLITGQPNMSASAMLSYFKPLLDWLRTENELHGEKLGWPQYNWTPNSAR

For `C[C](C)(CC(=O)O)[Ge](=[S])[S][Ge](=[S])[C](C)(C)CC(=O)O` [Compound (5)], the IC50 (Aminopeptidase [1]) was 110 µg/mL and the “inhibition rate, Aminopeptidase” value (Aminopeptidase [1]) was 88.0%.
For `O=C(O)C[CH2][Ge](=[S])[S][Ge](=[S])[CH2]CC(=O)O` [Compound (1)], the “inhibition rate, Dipeptidylaminopeptidase” value (Dipeptidylaminopeptidase [2]) was 98.2% and the “inhibition rate, Aminopeptidase” value (Aminopeptidase [3]) was 87.8%.
`N=C(N)NCCCC(N)C(=O)CC(Cc1ccc(O)cc1)C(=O)O` (stereo not drawn) [Arphamenine B, reference compound] gave an IC50 (aminopeptidase [4]) of 650 μg/m.
With `C[CH](CC(=O)O)[Ge](=[S])[S][Ge](=[S])[CH](C)CC(=O)O` (stereo not drawn) [Compound (2)] the “inhibition rate, Dipeptidylaminopeptidase” value (Dipeptidylaminopeptidase [2]) was 97.9%, the IC50 [5] was 78 µg/mL and the IC50 [6] was 168 µM. For the same compound, the “inhibition rate, Carboxypeptidase” value (Carboxypeptidase [7]) was 6.2%, the “inhibition rate, Aminopeptidase” value (Aminopeptidase [3]) was 87.6% and the IC50 [8] was 159 µM.
Work on `N=C(N)NCCCC(N)C(=O)CC(Cc1ccccc1)C(=O)O` (stereo not drawn) [Arphamenine A, reference compound] yielded an IC50 (aminopeptidase [4]) of 810 μg/m.
With `CC([CH2][Ge](=[S])[S][Ge](=[S])[CH2]C(C)C(=O)O)C(=O)O` (stereo not drawn) [Compound (3)] the IC50 (aminopeptidase [4]) was 450 μg/m, the “inhibition effect on aminopeptidase” value (aminopeptidase [4]) was “exhibited inhibition effects” and the “inhibition rate, Dipeptidylaminopeptidase” value (Dipeptidylaminopeptidase [2]) was 97.7%. For the same compound, the “inhibition effect on dipeptidylcarboxypeptidase” value [9] was “exhibited inhibition effects”, the “inhibition effect on dipeptidylaminopeptidase” value (dipeptidylaminopeptidase [10]) was “exhibited inhibition effects” and the “inhibition rate, Aminopeptidase” value (Aminopeptidase [3]) was 85.6%.
In the case of `O=C(O)C[CH](c1ccccc1)[Ge](=[S])[S][Ge](=[S])[CH](CC(=O)O)c1ccccc1` (stereo not drawn) [Compound (6)], the IC50 (aminopeptidase [4]) is reported as 440 μg/m, the “inhibition effect on aminopeptidase” value (aminopeptidase [4]) is reported as “exhibited inhibition effects” and the “inhibition effect on dipeptidylcarboxypeptidase” value [9] is reported as “exhibited inhibition effects”. The IC50 (Aminopeptidase [1]) was 19 µg/mL, the “inhibition rate, Aminopeptidase” value (Aminopeptidase [1]) was 97.0% and the IC50 (Carboxypeptidase [7]; carboxypeptidase) was 275 µg/mL. The “inhibition rate, Carboxypeptidase” value (Carboxypeptidase [7]) was 89.8%, the IC50 [8] was 185 µM and the “inhibition effect on carboxypeptidase” value (carboxypeptidase [11]) was “exhibited inhibition effects”.

Reference: patent US4748187A, “Opioid peptide-degrading enzyme inhibitor with a germanium compound” (Asai Germanium Research Institute, priority 1983, dated 1988)
